Values of other authors, collected in US20070237728A1, “Method and Composition for Dental Bleaching” (HIGH TECH LASER, priority 2000, published 2007).
Read-outs that look alike come from different tables or passages of the source.

Test system: teeth

CN(C)[C@@H]1C(O)=C(C(N)=O)C(=O)[C@@]2(O)C(O)=C3C(=O)c4c(O)ccc(Cl)c4[C@@H](O)[C@H]3C[C@@H]12 [dimethylchlorotetracyclin]
type of teeth discolouration caused (tetracycline staining of teeth): yellow discolouration

CN(C)[C@@H]1C(=O)C(C(N)=O)=C(O)[C@@]2(O)C(=O)C3=C(O)c4c(O)cccc4[C@@](C)(O)[C@H]3[C@H](O)[C@@H]12 [oxytetracyclin]
type of teeth discolouration caused (in vivo): yellow discolouration

CN(C)[C@@H]1C(O)=C(C(N)=O)C(=O)[C@@]2(O)C(O)=C3C(=O)c4c(O)cccc4[C@@](C)(O)[C@H]3C[C@@H]12 [tetracycline]
type of teeth discolouration caused (tetracycline staining of teeth): yellow discolouration
